In ChEMBL document CHEMBL1201862, “PubChem BioAssay data set” (2004):
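Interpolation was linear, between the two tested concentrations surrounding the appropriate level; five concentrations were tested over 48 hours in 96-well plates. GI50 = concentration required for 50% inhibition of growth.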 The source made the active and inactive calls. Rule as the data show it: active = GI50 up to about 1.1 µM and inactive = higher.

How the values were obtained:
Experiment in all cases: NCI-60 cell line screen, 48 h
[1] = tested on: HCT-116
[2] = tested on: OVCAR-3
[3] = tested on: RPMI-8226
[4] = tested on: SK-MEL-5
[5] = tested on: SNB-75
[6] = tested on: UACC-62
[7] = tested on: Malme-3M
[8] = tested on: SF-539
[9] = tested on: SK-OV-3
[10] = tested on: HOP-62
[11] = tested on: RXF 393
[12] = tested on: K562
[13] = tested on: U-251
[14] = tested on: HOP-92

Measured: GI50

O=[N+]([O-])c1ccc(C2CC(c3ccc(NCc4nc5ccccc5[nH]4)cc3)=NO2)cc1 (stereo unspecified)
inactive: [1] 27.4 µM | [2] 3.56 µM | [3] 18.5 µM | [4] 9.04 µM | [5] > 100 µM | [6] 70.3 µM | [7] 34.4 µM | [8] > 100 µM | [9] > 100 µM | [10] > 100 µM | [11] > 100 µM | [12] 21.1 µM | [13] 36.4 µM | [14] > 100 µM

CCOC(=O)/C(Br)=C1/OC(=O)c2ccccc2-c2ccccc21.CCOC(=O)/C(Br)=C1\OC(=O)c2ccccc2-c2ccccc21
inactive: [1] 17.7 µM | [2] 18.2 µM | [3] 8.97 µM | [4] 17.5 µM | [5] 25.2 µM | [6] 15.4 µM | [7] 17.7 µM | [8] 21.5 µM | [9] 36.2 µM | [10] 18.5 µM | [12] 4.3 µM | [13] 23.2 µM | [14] 11.8 µM

C/C(=N\NS(=O)(=O)c1ccc([N+](=O)[O-])cc1)c1ccc[n+]([O-])n1
inactive: [1] 1.72 µM | [2] 2.23 µM | [3] 2.16 µM | [4] 2.35 µM | [5] 1.95 µM | [6] 1.21 µM | [7] 3.09 µM | [8] 2.08 µM | [9] 2.64 µM | [10] 2.09 µM | [11] 1.34 µM | [12] 3.33 µM | [13] 1.86 µM | [14] 2.94 µM

COc1ccc(/C=C2\CN(C)Cc3c2nc(N)nc3-c2ccc(OC)cc2)cc1
inactive: [1] > 100 µM | [2] > 100 µM | [3] 24.6 µM | [4] 26.9 µM | [5] > 100 µM | [6] 87.1 µM | [7] 34.4 µM | [8] > 100 µM | [9] > 100 µM | [10] 64.1 µM | [11] > 100 µM | [12] 70.5 µM | [13] 67.5 µM

CCCCCCCCCCCCCC(=S)N/C=C/OC
inactive: [1] 30.5 µM | [2] 23.6 µM | [3] 23.6 µM | [4] 25 µM | [5] 33.7 µM | [6] 20.7 µM | [7] 26.6 µM | [8] 66.5 µM | [9] > 100 µM | [10] 48 µM | [11] 26.9 µM | [13] 21.4 µM | [14] 25.8 µM

NC1N=Nc2ccccc21 (stereo unspecified)
inactive: [1] > 100 µM | [2] > 100 µM | [3] > 100 µM | [5] > 100 µM | [7] > 100 µM | [8] > 100 µM | [9] > 100 µM | [10] > 100 µM | [11] > 100 µM | [12] > 100 µM | [13] > 100 µM | [14] > 100 µM

COC1OC(C)C(OC(=O)C(C)(C)C)C(OS(=O)(=O)c2ccc(C)cc2)C1OS(=O)(=O)c1ccc(C)cc1 (stereo unspecified)
inactive: [1] > 100 µM | [2] > 100 µM | [3] > 100 µM | [4] > 100 µM | [5] 77.8 µM | [7] > 100 µM | [8] > 100 µM | [9] > 100 µM | [10] > 100 µM | [11] > 100 µM | [12] > 100 µM | [13] > 100 µM

CCCCNC(=NC#N)NCCCC
inactive: [1] > 100 µM | [2] > 100 µM | [3] > 100 µM | [4] > 100 µM | [5] > 100 µM | [6] > 100 µM | [7] > 100 µM | [8] > 100 µM | [9] > 100 µM | [10] > 100 µM | [11] 34.5 µM | [12] > 100 µM | [13] 99.5 µM | [14] > 100 µM

COc1cccc(C2=NC(C(C)C)CO2)c1 (stereo unspecified)
inactive: [2] > 100 µM | [3] > 100 µM | [4] > 100 µM | [5] > 100 µM | [6] > 100 µM | [7] > 100 µM | [8] > 100 µM | [9] > 100 µM | [10] > 100 µM | [11] > 100 µM | [12] > 100 µM

COc1ccc2c(c1OC)C(=O)C2
inactive: [1] > 100 µM | [3] > 100 µM | [4] > 100 µM | [5] > 100 µM | [6] > 100 µM | [7] > 100 µM | [9] > 100 µM | [10] > 100 µM | [11] > 100 µM | [12] > 10 µM | [13] > 100 µM

N#CCCN(c1ccc(/C=N/c2ccccc2)cc1)S(=O)(=O)c1ccccc1
inactive: [1] > 100 µM | [2] > 100 µM | [3] > 100 µM | [4] > 100 µM | [5] > 100 µM | [6] 3.27 µM | [7] 41.4 µM | [8] > 100 µM | [9] > 100 µM | [10] 23.7 µM | [12] 2.97 µM | [14] > 100 µM

COC1(C)CC2N(C(=O)c3ccccc3)N=C(c3ccccc3)CC2(C)O1 (stereo unspecified)
inactive: [1] > 100 µM | [2] > 100 µM | [3] 89.5 µM | [4] > 100 µM | [5] > 100 µM | [6] 43.3 µM | [7] > 100 µM | [8] > 100 µM | [9] > 100 µM | [10] > 100 µM | [12] 88.9 µM | [14] > 100 µM

CCOC(=O)/N=C(\N)SCc1ccccc1
inactive: [1] > 100 µM | [3] 34.3 µM | [4] > 100 µM | [5] > 100 µM | [6] > 100 µM | [7] > 100 µM | [8] > 100 µM | [9] > 100 µM | [10] > 100 µM | [11] > 100 µM | [12] > 100 µM | [13] > 100 µM | [14] > 100 µM

CC(=O)OC1COC(N2C(=O)C(=O)c3c(C)cc(Cl)nc32)C(OC(C)=O)C1OC(C)=O (stereo unspecified)
inactive: [1] > 100 µM | [2] > 100 µM | [3] > 100 µM | [4] > 100 µM | [5] > 100 µM | [6] > 100 µM | [7] > 100 µM | [8] > 100 µM | [10] > 100 µM | [11] > 100 µM | [12] > 100 µM | [13] > 100 µM | [14] > 100 µM

Cc1cc(C)nc(Nc2nc3cc([N+](=O)[O-])ccc3[nH]2)n1
inactive: [1] > 100 µM | [2] > 100 µM | [3] > 100 µM | [4] > 100 µM | [6] > 100 µM | [7] > 100 µM | [8] > 100 µM | [10] > 100 µM | [12] > 100 µM | [13] > 100 µM | [14] 31.1 µM

Cc1nn(-c2nc3ccccc3s2)c2c1C(=O)c1ccccc1-2
inactive: [1] > 100 µM | [2] > 100 µM | [3] > 100 µM | [4] > 100 µM | [5] > 100 µM | [6] > 100 µM | [7] > 100 µM | [8] > 100 µM | [9] > 100 µM | [10] > 100 µM | [11] 62.5 µM | [12] > 100 µM | [13] 60.7 µM | [14] 89.3 µM

C[Si](C)(C)c1ccc(CC2(Cc3ccc([Si](C)(C)C)cc3)CCNC2)cc1
inactive: [1] 1.69 µM | [2] 1.97 µM | [4] 1.9 µM | [5] 3.24 µM | [6] 2.02 µM | [7] 3.95 µM | [8] 3.34 µM | [9] 1.63 µM | [10] 2.94 µM | [11] 1.71 µM | [12] 3.62 µM | [13] 1.66 µM | [14] 1.74 µM

O=C(/C=N/c1ccccc1[S-])c1ccco1.O=C(/C=N/c1ccccc1[S-])c1ccco1.[Zn+2]
inactive: [1] 4.06 µM | [2] 15.2 µM | [4] 16.9 µM | [5] 8.28 µM | [6] 15.6 µM | [7] 10 µM | [8] 13.3 µM | [9] 27.9 µM | [10] 6 µM | [12] 18.9 µM | [13] 4.23 µM | [14] 11.5 µM

NC(=O)N1N=C2c3ccccc3CC[C@@H]2C1c1ccccc1 (stereo partly specified)
inactive: [1] > 100 µM | [2] > 100 µM | [3] 63.2 µM | [4] 88.7 µM | [5] 36.6 µM | [6] > 100 µM | [7] > 100 µM | [8] > 100 µM | [9] > 100 µM | [10] > 100 µM | [11] > 100 µM | [12] 61.4 µM | [13] > 100 µM

COc1ccc(/C=C/c2cc(OC)c(O[Si](C)(C)C(C)(C)C)c(OC)c2)cc1
inactive: [1] 55.6 µM | [2] > 100 µM | [3] 45 µM | [4] 54.1 µM | [5] 84.7 µM | [6] 75.2 µM | [7] 24.2 µM | [8] > 100 µM | [9] > 100 µM | [10] > 100 µM | [12] 41.9 µM | [13] 98.6 µM | [14] 29.9 µM

CCCC1(CC(=O)O)OCCc2c1[nH]c1ccccc21 (stereo unspecified) [PRODOLIC ACID]
inactive: [2] > 100 µM | [3] > 100 µM | [4] > 100 µM | [5] 69.3 µM | [6] > 100 µM | [7] > 100 µM | [8] > 100 µM | [9] > 100 µM | [10] > 100 µM | [11] > 100 µM | [12] > 100 µM | [13] > 100 µM | [14] > 100 µM
